Measurements: patent publication US20100136034A1, “NOVEL MULTIMERIC MOLECULES, A PROCESS FOR PREPARING THE SAME AND THE USE THEREOF FOR MANUFACTURING MEDICINAL DRUGS” (CENTRE NATIONAL DE LA RECHERCHE SCIENTIFIQUE, priority 2007, published 2010)
Non-standard residues stand in square brackets, D forms with d. No end group written: not given here. Ahx = NCCCCCC(=O)O

Experiments:
[1] = tested on: Burkitt's lymphoma RAJI cells; assay: Induction of apoptosis in Burkitt's lymphoma RAJI cells (drop in mitochondrial transmembrane potential, DiOC6(3), flow cytometry); assay type: cell-based; conditions: 16 hours incubation with CD40L analog, FIG. 5A
Description: Burkitt's lymphoma (RAJI) was cultured in RPMI 1640 medium (Cambrex Bioscience, Verviers, Belgium) supplemented with 10% decomplemented foetal calf serum (FBS) and gentamycin (10 μg/ml). For assaying apoptosis, cells (1×10^6/ml) were incubated at 37° C. in 96-well plates, at the specified concentrations of CD40L analogs, in a final volume of 200 μl. After incubation for 16 hours, cell apoptosis was measured as described herein below.
To this end, cells were pulsed with DiOC6(3) (Interchim, Montluçon, France)) at a final concentration of 40 nM for the last 45 minutes of culturing.
Cells were subsequently washed, resuspended in 300 μl of PBS and analyzed by flow cytometry. Results (FIG. 5A) are expressed in percentage of specific apoptosis according the following formula: % of specific apoptosis=[(% of dead treated cells−% of dead control cells)×100]/(100−% de dead control cells).
Cells were analyzed by a FACSCalibur® instrument. At least 25000 pulse is events were acquired for each experiment using the CellQuest 3.3 software (Becton Dickinson, Pont de Claix, France) and data were analyzed using the WinMDI 2.8 software (Joseph Trotter, Scripps Research Institute, http://facs.scripps.edu/software.html).

murine spleen B cells = assay: Spleen B cell proliferation ([3H]-thymidine uptake); assay type: cell-based, BALB/c mice; conditions: ligand alone, without anti-CD40 antibody 3/23; 72 hours; FIG. 5B
Description: Spleens were surgically removed from BALB/c mice aged from 5 to 12 weeks. Spleen B cells were prepared by positive selection using magnetic beads coated with monoclonal anti-CD19 antibodies (MACS, Milteny biotech, Germany). This fraction contains over 95% of B220^+ cells. B cells (3×10^6/ml) were next cultured in RPMI 1640 medium supplemented with 10% complement depleted FBS, gentamycin (10 μg/ml), 25 mM HEPES and […] β-mercaptoethanol in presence of CD40L analogs. Cells were pulsed with 1 μCi/well of tritiated thymidine (ICN, Irvine, Calif.) for the last 20 hours of culturing and the uptake of [^3H]-thymidine as expressed in cpm was measured after 72 hours using a Matrix 9600 model direct 13 counter (Packard, Meriden, Conn.). Results (FIG. 5B) are expressed as a stimulation index corresponding to cpm obtained for cultures with CD40L analogs divided by cpm obtained for cultures without CD40L analogs. Mice used in this study were raised in our animal housing facilities which are licensed by the french veterinary administration under number D-67-482-2.

L41: dimeric ligand by click chemistry: dimerized macrocycle IV.25 coupled to pentapeptide P1 (Lys-Gly-Tyr-Tyr-Ahx), deprotected (peptide KGYY[Ahx]; chain AKKKAK; also: dimerized macrocycle IV.25 (cyclised hexapeptide) joined by click chemistry (triazole) to pentapeptide P1 (Lys-Gly-Tyr-Tyr-Ahx), D-residues and non-natural residues not placed)
percentage of specific apoptosis [1]: induces a Burkitt lymphoma (RAJI) specific apoptosis percentage | B cell proliferation (stimulation index, [3H]-thymidine uptake) (murine spleen B cells): induces alone murine spleen B cell proliferation
